Measurements as given in US10266513B2 (Pfizer Inc., priority 2012, dated 2019).
Like-named read-outs stand apart in the source and are kept apart here.

Columns and labels:
[1] = system: Human B cells; assay: Human Primary B Cell Proliferation Assay (3H-thymidine incorporation, anti-human IgM stimulated); assay type: cell-based; settings: purified human B cells, 50 μg/mL anti-human IgM F(ab')2, 72 hours
Protocol: Human Primary B Cell Proliferation Assay
Human B cells were purified from buffy coats using the human B cell RosetteSep kit per manufacturer's instructions. Purified cells were resuspended in RPMI-10% HIFCS, 2 mM L-glutamine, 100 U/mL penicillin, 100 μg/ml streptomycin, incubated with compounds for 1 hour at 37° C. and then stimulated with 50 μg/mL anti-human IgM F(ab′)2 for 72 hours. ^3H-thymidine was included in the culture media for the final 8-16 hours. Cells were harvested and ^3H-thymidine incorporation was measured.
Human B cell Proliferation Assay

[2] = system: human whole blood; assay: Human Whole Blood Histamine Assay (anti-IgE induced histamine release); assay type: cell-based; settings: heparinized human whole blood, anti-human-IgE 2 μg/ml, histamine release by ELISA, read-out: HWB IC50
Protocol: Human Whole Blood Histamine Assay
Heparinized human whole blood (200 μl) was plated in 96-well V-bottom assay plates (VWR). Compounds diluted in 100% DMSO (1 μl) were added and incubated at 37° C. for 120 minutes. Anti-human-IgE antibody (KPL) was added to a final concentration of 2 μg/ml and assay plates incubated for 30 minutes at 37° C. Plates were spun at 2000 rpm for 8 minutes and the analyzed for histamine release by ELISA kits (Beckman Coulter).
Inhibition curves and IC50 values are determined using Excel-fit.

[3] = molecular target: human EGFR kinase domain (Homo sapiens (Human), UniProt P00533); assay: Human EGFR LanthaScreen Selectivity Assay (TR-FRET); assay type: biochemical; settings: 20 μM ATP
human EGFR kinase domain, sequence (P00533 712-979): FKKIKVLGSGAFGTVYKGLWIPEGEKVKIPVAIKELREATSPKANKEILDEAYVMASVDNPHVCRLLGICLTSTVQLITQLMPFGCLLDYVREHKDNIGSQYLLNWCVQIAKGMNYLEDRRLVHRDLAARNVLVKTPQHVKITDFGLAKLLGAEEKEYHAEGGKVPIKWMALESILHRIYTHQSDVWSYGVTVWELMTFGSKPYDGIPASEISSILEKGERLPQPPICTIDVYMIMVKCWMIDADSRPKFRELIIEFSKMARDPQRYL
Protocol: The kinase reaction mixtures were incubated at room temperature for 60 minutes before stopping the kinase activity by the addition of 15 mM EDTA. The extent of peptide phosphorylation by EGFR was detected using a Terbium-conjugated anti-phospho-Tyrosine antibody (Tb-PT66 antibody, invitrogen # PV3557).

[4] = molecular target: human full-length BTK Kinase (Homo sapiens (Human), UniProt Q06187); assay: Human BTK LanthaScreen Assay (TR-FRET); assay type: biochemical; settings: 50 μM ATP, FAM-Srctide peptide substrate, read-out: BTK Inhibition IC50
human full-length BTK Kinase, sequence (Q06187 whole entry): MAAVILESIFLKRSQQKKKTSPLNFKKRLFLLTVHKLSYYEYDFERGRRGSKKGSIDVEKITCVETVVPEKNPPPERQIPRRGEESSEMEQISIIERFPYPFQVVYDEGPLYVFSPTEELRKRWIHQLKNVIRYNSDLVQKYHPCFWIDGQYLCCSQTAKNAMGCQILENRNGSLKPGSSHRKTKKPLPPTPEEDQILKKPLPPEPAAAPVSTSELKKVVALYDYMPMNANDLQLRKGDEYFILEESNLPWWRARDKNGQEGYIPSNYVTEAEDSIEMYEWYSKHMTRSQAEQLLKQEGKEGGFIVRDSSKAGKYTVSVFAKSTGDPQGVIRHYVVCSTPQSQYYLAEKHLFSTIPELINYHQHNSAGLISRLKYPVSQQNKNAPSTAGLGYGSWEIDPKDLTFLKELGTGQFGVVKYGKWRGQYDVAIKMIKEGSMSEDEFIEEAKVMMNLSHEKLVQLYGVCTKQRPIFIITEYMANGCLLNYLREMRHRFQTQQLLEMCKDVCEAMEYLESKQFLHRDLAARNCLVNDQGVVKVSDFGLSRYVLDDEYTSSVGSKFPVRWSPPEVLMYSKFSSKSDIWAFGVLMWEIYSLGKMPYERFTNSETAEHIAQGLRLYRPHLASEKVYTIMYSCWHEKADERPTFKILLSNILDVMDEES
Excerpt: Human BTK LanthaScreen Assay

Structure (SMILES)	IC50 ([1]; Homo sapiens, B-cell)	IC50 ([2]; Homo sapiens)	IC50 [3]	IC50 [4]	IC50 ([1]; B-cell)	IC50 [2]	IC50 [1]
C=CC(=O)N1CCC[C@H](n2nc(-c3ccc(Oc4ccccc4)cc3)c(C(N)=O)c2N)C1 [Example 126, 1-[(3S)-1-acryloylpiperidin-3-yl]-5-amino-3-(4-phenoxyphenyl)-1H-pyrazole-4-carboxamide]	20.9 nM	201 nM	802 nM				
N#CN1CCC[C@@H](n2nc(-c3ccc(Oc4ncc(Cl)cc4F)cc3)c(C(N)=O)c2N)C1 [Example 118, (R)-5-amino-3-(4-((5-chloro-3-fluoropyridin-2-yl)oxy)phenyl)-1-(1-cyanopiperidin-3-yl)-1H-pyrazole-4-carboxamide]			> 50000 nM	7.6 nM	29.6 nM	50 nM	
N#CN1CCC[C@@H](n2nc(-c3ccc(Oc4cccc(C(F)(F)F)n4)cc3)c(C(N)=O)c2N)C1 [Example 116, (R)-5-amino-1-(1-cyanopiperidin-3-yl)-3-(4-((6-(trifluoromethyl)pyridin-2-yl)oxy)phenyl)-1H-pyrazole-4-carboxamide]			> 26800 nM	2.6 nM	14.9 nM	41.8 nM	
C=CC(=O)N1CCC[C@@H](n2nc(-c3ccc(Oc4ccc(F)cc4F)cc3)c(C(N)=O)c2N)C1 [Example 137, 1-[(3R)-1-acryloylpiperidin-3-yl]-5-amino-3-[4-(2,4-difluorophenoxy)phenyl]-1H-pyrazole-4-carboxamide]			25.6 nM	0.25 nM		31.4 nM	0.63 nM
NC(=O)c1c(-c2ccc(Oc3cccc(C(F)(F)F)n3)cc2)nn([C@@H]2CCCN(C(=O)/C=C/CO)C2)c1N [Example 162, 5-amino-1-{(3R)-1-[(2E)-4-hydroxybut-2-enoyl]piperidin-3-yl}-3-(4-{[6-(trifluoromethyl)pyridin-2-yl]oxy}phenyl)-1H-pyrazole-4-carboxamide]			14100 nM	9.8 nM	103 nM	343 nM	
N#CN1CCCC(n2nc(-c3ccc(Oc4ccc(F)cc4F)cc3)c(C(N)=O)c2N)C1 (single isomer, unassigned) [Example 27]			16800 nM	1.3 nM	2.7 nM	64.3 nM	
N#CN1CCCC(n2nc(-c3ccc(Oc4ccc(Cl)cc4)cc3)c(C(N)=O)c2N)C1 (single isomer, unassigned) [Example 15]			3890 nM	0.64 nM	1.7 nM	20.6 nM	
NC(=O)c1c(-c2ccc(Oc3ncc(Cl)cc3F)cc2)nn([C@@H]2CCCN(C(=O)/C=C/CF)C2)c1N [Example 156, 5-amino-3-{4-[(5-chloro-3-fluoropyridin-2-yl)oxy]phenyl}-1-{(3R)-1-[(2E)-4-fluorobut-2-enoyl]piperidin-3-yl}-1H-pyrazole-4-carboxamide]			381 nM	1.4 nM	2.5 nM		
C=CC(=O)N1CCC[C@@H](n2nc(-c3ccc(Oc4cccc(C(F)(F)F)n4)cc3)c(C(N)=O)c2N)C1 [Example 161, 1-[(3R)-1-acryloylpiperidin-3-yl]-5-amino-3-(4-{[6-(trifluoromethyl)pyridin-2-yl]oxy}phenyl)-1H-pyrazole-4-carboxamide]			89.8 nM	1.2 nM	3 nM	52.7 nM	
N#CN1CCC[C@@H](n2nc(-c3ccc(Oc4ccc(Cl)cn4)cc3)c(C(N)=O)c2N)C1 [Example 110, (R)-5-amino-3-(4-((5-chloropyridin-2-yl)oxy)phenyl)-1-(1-cyanopiperidin-3-yl)-1H-pyrazole-4-carboxamide]			> 15400 nM	9.2 nM	1.6 nM	94.7 nM	
NC(=O)c1c(-c2ccc(Oc3ccc(Cl)cn3)cc2)nn(C2CCCN(C(=O)/C=C/CF)C2)c1N (stereo not drawn) [Example 160]			890 nM	5.5 nM	2.9 nM		
C=CC(=O)N1CCC[C@H](n2nc(-c3ccc(Oc4ccc(F)cc4F)cc3)c(C(N)=O)c2N)C1 [Example 136, 1-[(3S)-1-acryloylpiperidin-3-yl]-5-amino-3-[4-(2,4-difluorophenoxy)phenyl]-1H-pyrazole-4-carboxamide]	0.44 nM		214 nM	7.8 nM		570 nM	
C=CC(=O)N1CCC[C@@H](n2nc(-c3ccc(Oc4ccc(Cl)cn4)cc3)c(C(N)=O)c2N)C1 [Example 157, 1-[(3R)-1-acryloylpiperidin-3-yl]-5-amino-3-{4-[(5-chloropyridin-2-yl)oxy]phenyl}-1H-pyrazole-4-carboxamide]			29.7 nM	1.3 nM	24.2 nM	98.7 nM	
NC(=O)c1c(-c2ccc(Oc3ncc(Cl)cc3F)cc2)nn([C@@H]2CCCN(C(=O)/C=C/C(F)F)C2)c1N [Example 155, 5-amino-3-{4-[(5-chloro-3-fluoropyridin-2-yl)oxy]phenyl}-1-{(3R)-1-[(2E)-4,4-difluorobut-2-enoyl]piperidin-3-yl}-1H-pyrazole-4-carboxamide]			106 nM	0.7 nM	2 nM		
N#CN1CCCC(n2nc(-c3ccc(Oc4ccccc4)cc3)c(C(N)=O)c2N)C1 (single isomer, unassigned) [Example 2]			1710 nM	0.37 nM	0.5 nM	33.3 nM	
NC(=O)c1c(-c2ccc(Oc3ccc(Cl)cn3)cc2)nn([C@@H]2CCCN(C(=O)/C=C/C(F)F)C2)c1N [Example 159, 5-amino-3-{4-[(5-chloropyridin-2-yl)oxy]phenyl}-1-{(3R)-1-[(2E)-4,4-difluorobut-2-enoyl]piperidin-3-yl}-1H-pyrazole-4-carboxamide]			311 nM	1.3 nM	2.8 nM		
NC(=O)c1c(-c2ccc(Oc3ccc(Cl)cc3)cc2)nn([C@@H]2CCCN(C(=O)/C=C/CO)C2)c1N [Example 131, 5-amino-3-[4-(4-chlorophenoxy)phenyl]-1-{(3R)-1-[(2E)-4-hydroxybut-2-enoyl]piperidin-3-yl}-1H-pyrazole-4-carboxamide]			2200 nM	2.3 nM	1.6 nM	259 nM	
NC(=O)c1c(-c2ccc(Oc3ccc(F)cc3F)cc2)nn([C@@H]2CCCN(C(=O)/C=C/CF)C2)c1N [Example 145, 5-amino-3-[4-(2,4-difluorophenoxy)phenyl]-1-{(3R)-1-[(2E)-4-fluorobut-2-enoyl]piperidin-3-yl}-1H-pyrazole-4-carboxamide]			2180 nM	2.8 nM	11.8 nM	126 nM	
NC(=O)c1c(-c2ccc(Oc3ccc(F)cc3F)cc2)nn([C@@H]2CCCN(C(=O)/C=C/CO)C2)c1N [Example 151, 5-am no-3-[4-(2,4-difluorophenoxy)phenyl]-1-{(3R)-1-[(2E)-4-hydroxybut-2-enoyl]-piperidin-3-yl}-1H-pyrazole-4-carboxamide]			12100 nM	2.3 nM	0.22 nM	258 nM	
NC(=O)c1c(-c2ccc(Oc3cccc(C(F)(F)F)n3)cc2)nn([C@@H]2CCCN(C(=O)/C=C/CF)C2)c1N [Example 164, 5-amino-1-{(3R)-1-[(2E)-4-fluorobut-2-enoyl]piperidin-3-yl}-3-(4-{[6-(trifluoromethyl)pyridin-2-yl]oxy}phenyl)-1H-pyrazole-4-carboxamide]			3360 nM	3.2 nM	11.4 nM		
C=CC(=O)N1CCC[C@@H](n2nc(-c3ccc(Oc4ccc(Cl)cc4)cc3)c(C(N)=O)c2N)C1 [Example 130, 1-[(3R)-1-acryloylpiperidin-3-yl]-5-amino-3-[4-(4-chlorophenoxy)phenyl]-1H-pyrazole-4-carboxamide]			7.9 nM	0.17 nM	0.15 nM	133 nM	
